By TGI is commonly meant the concentration at which net growth stops. A higher TGI goes with less potent growth arrest. Usually GI50 stands for the concentration giving 50% growth inhibition.

Test systems include CCRF-CEM leukemia; HCT-116 colon; HT29 colon; LOX IMVI melanoma; MALME-3M melanoma; MOLT-4 leukemia; RPMI-8226 leukemia; SF-268 CNS; UO-31 renal; CAKI-1 renal.
What all share (assay): DTP human tumour cell line panel, 48 h

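1) Cells in 96-well plates. 2) Compound, 48 h, 5 concentrations. 3) Linear interpolation between surrounding doses. 4) Unreached endpoint = highest concentration. GI50 is the concentration that inhibits growth by half. TGI is the concentration that stops growth completely.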

`O=S(=O)(NCn1ccc2ccccc21)c1ccccc1`: the TGI in the assay on CCRF-CEM leukemia was > 100 µM; in the assay with HCT-116 colon, > 100 µM; in the assay with HT29 colon, > 57.2 µM; in the assay on LOX IMVI melanoma it was > 100 µM; with MALME-3M melanoma it was > 100 µM; in the assay on MOLT-4 leukemia it was > 100 µM. Moreover, the TGI with RPMI-8226 leukemia is 47.2 µM; with SF-268 CNS it was > 100 µM; in the assay with UO-31 renal it was > 100 µM.
Consider `O=c1ncccn1C1OC(CO)C(O)C1O` (stereo unspecified), for which the TGI in the assay on CAKI-1 renal, in the assay with CCRF-CEM leukemia, with HCT-116 colon, with HT29 colon, in the assay with LOX IMVI melanoma and in the assay on MALME-3M melanoma was > 100 µM each time. Further, the TGI in the assay with RPMI-8226 leukemia, in the assay on SF-268 CNS and in the assay with UO-31 renal was > 100 µM in each case.
For `COC(=O)c1c2c(cc3c1CC1(Cc4cc5c(c(C(C)=O)c4C1)CCC5)C3)CCC2` (stereo unspecified), the total growth inhibition concentration (TGI) with CAKI-1 renal, in the assay with CCRF-CEM leukemia, with HCT-116 colon, with HT29 colon, in the assay on LOX IMVI melanoma and in the assay on MALME-3M melanoma was > 100 µM in each case. The TGI in the assay with MOLT-4 leukemia, in the assay with SF-268 CNS and in the assay with UO-31 renal was > 100 µM each time.
For `Cc1cccc(C)c1NC(=O)CCc1nc(=S)[nH][nH]1`, the TGI in the assay with CAKI-1 renal, in the assay on CCRF-CEM leukemia, in the assay with HCT-116 colon, in the assay on LOX IMVI melanoma, with MALME-3M melanoma and in the assay on MOLT-4 leukemia was > 100 µM throughout. In addition, the total growth inhibition concentration (TGI) in the assay with RPMI-8226 leukemia, with SF-268 CNS and in the assay on UO-31 renal was > 100 µM each time.
For the molecule `O=C(Oc1ccc(CO[N+](=O)[O-])cc1)c1ccccc1`, the GI50 with CAKI-1 renal was 0.163 µM; with CCRF-CEM leukemia, 0.0324 µM; with HCT-116 colon, 0.101 µM; in the assay with HT29 colon, 0.136 µM; in the assay with LOX IMVI melanoma it was 0.163 µM; in the assay on MALME-3M melanoma it was 0.123 µM. In addition, the GI50 with RPMI-8226 leukemia is 0.0912 µM; with SF-268 CNS it was 0.167 µM; in the assay with UO-31 renal, 0.172 µM. Besides, the TGI in the assay with CAKI-1 renal amounted to 0.308 µM; with CCRF-CEM leukemia, 0.173 µM; with HCT-116 colon, 0.241 µM; in the assay on HT29 colon, 0.27 µM; in the assay with LOX IMVI melanoma it was 0.316 µM; in the assay on MALME-3M melanoma, 0.272 µM. Besides, the concentration for total growth inhibition (TGI) in the assay on RPMI-8226 leukemia was 0.33 µM; in the assay on SF-268 CNS, 0.317 µM; with UO-31 renal, 0.322 µM.
With `COc1ccc(C(=O)C(CC2C(=O)NC(=O)NC2=O)c2ccc(OC)cc2)cc1` (stereo unspecified), the TGI with CAKI-1 renal, with CCRF-CEM leukemia, in the assay with HCT-116 colon, in the assay with HT29 colon, in the assay with LOX IMVI melanoma and with MALME-3M melanoma was > 100 µM each time. In addition, the TGI with MOLT-4 leukemia, with SF-268 CNS and with UO-31 renal was > 100 µM throughout.
`COC(=O)C1C(O)C(C)C(O)C(C)C=C(C)C2=C3C(=C(C)C(=O)c4c(O)c(c(C)c(OC(C)=O)c43)NC(=O)C(C)=C/C=C\C(C)C(O)C(C)C1O)OCO2` (stereo unspecified): the TGI in the assay with CCRF-CEM leukemia is 67 µM; in the assay on HCT-116 colon, > 100 µM; in the assay on HT29 colon it was 70.2 µM; with LOX IMVI melanoma, 43 µM; with MALME-3M melanoma, 38.5 µM; in the assay on MOLT-4 leukemia it was 51.4 µM. Moreover, the values for the total growth inhibition concentration (TGI) in the assay with RPMI-8226 leukemia, in the assay on SF-268 CNS and in the assay on UO-31 renal were 55.3 µM, 44.9 µM and > 100 µM, respectively.
On to `COc1cc(C)c(C2NC(=O)c3ccccc3N2)cc1C` (stereo unspecified), for which the concentration for total growth inhibition (TGI) in the assay with CAKI-1 renal is 16.2 µM; in the assay on CCRF-CEM leukemia, 18.1 µM; with HCT-116 colon it was 43.1 µM; in the assay with HT29 colon it was 13.6 µM; in the assay on LOX IMVI melanoma, 97.9 µM; with MALME-3M melanoma it was > 100 µM. Also, the total growth inhibition concentration (TGI) with MOLT-4 leukemia was 35.8 µM; in the assay on SF-268 CNS, > 100 µM; with UO-31 renal, > 100 µM.
For the molecule `CC(C)OP(=O)(OC(C)C)/C(N)=N/Nc1ccc([N+](=O)[O-])cc1`, the TGI with CAKI-1 renal, in the assay with CCRF-CEM leukemia, in the assay with HCT-116 colon, in the assay with LOX IMVI melanoma, in the assay with MALME-3M melanoma and with MOLT-4 leukemia was > 100 µM in each case. Besides, the total growth inhibition concentration (TGI) in the assay on RPMI-8226 leukemia, in the assay on SF-268 CNS and in the assay with UO-31 renal was > 100 µM each time.
Turning to `C[Si](C)(C)/C=C\CCO`, the TGI in the assay with CCRF-CEM leukemia, in the assay on HCT-116 colon, in the assay on HT29 colon, in the assay on LOX IMVI melanoma, with MALME-3M melanoma and in the assay with MOLT-4 leukemia was > 100 µM in each case. In addition, the total growth inhibition concentration (TGI) with RPMI-8226 leukemia, with SF-268 CNS and with UO-31 renal was > 100 µM each time.
As for `COc1ccc(C(=O)NNc2nc(Cl)nc(N3CCN(C(c4ccccc4)c4ccccc4)CC3)n2)cc1`, the GI50 is 1.84 µM with CAKI-1 renal; 1.25 µM in the assay on CCRF-CEM leukemia; 1.74 µM with HCT-116 colon; 1.63 µM in the assay with LOX IMVI melanoma; 1.84 µM in the assay on MALME-3M melanoma; 1.64 µM in the assay on MOLT-4 leukemia. Moreover, the GI50 in the assay on RPMI-8226 leukemia was 33.7 µM; with SF-268 CNS it was 2.01 µM; in the assay with UO-31 renal, 3.2 µM. For the same molecule, the TGI in the assay on CAKI-1 renal came out at 3.48 µM; in the assay on CCRF-CEM leukemia, 4.12 µM; in the assay on HCT-116 colon, 3.22 µM; with LOX IMVI melanoma, 3.05 µM; in the assay on MALME-3M melanoma, 3.64 µM; in the assay on MOLT-4 leukemia, 5.15 µM. The figures for the TGI with RPMI-8226 leukemia, in the assay on SF-268 CNS and in the assay on UO-31 renal were > 100 µM, 4.31 µM and 18.5 µM, respectively.
For the molecule `NN=C(CC(O)(C(F)(F)Cl)C(F)(F)Cl)CC(O)(C(F)(F)Cl)C(F)(F)Cl`, the total growth inhibition concentration (TGI) in the assay with CAKI-1 renal, with CCRF-CEM leukemia, in the assay on HCT-116 colon, in the assay with HT29 colon, with LOX IMVI melanoma and with MALME-3M melanoma was > 10 µM in each case. The TGI in the assay on MOLT-4 leukemia, in the assay on RPMI-8226 leukemia and in the assay on SF-268 CNS was > 10 µM in each case.

The values are drawn from PubChem BioAssay (NCI).
